Active and inactive are the calls of the source.
Key:
[1] = target: T1, Short transient receptor potential channel 4 (Mus musculus, UniProt Q9QUQ5); test: potentiation of DAMGO-evoked TRPC4 calcium signal – cell-based, HEK293 TRPC4/mu-opioid, Fluo-4 calcium, EC20 DAMGO, dose response (AID 434941); assay type: functional
T1 sequence (Q9QUQ5 whole entry): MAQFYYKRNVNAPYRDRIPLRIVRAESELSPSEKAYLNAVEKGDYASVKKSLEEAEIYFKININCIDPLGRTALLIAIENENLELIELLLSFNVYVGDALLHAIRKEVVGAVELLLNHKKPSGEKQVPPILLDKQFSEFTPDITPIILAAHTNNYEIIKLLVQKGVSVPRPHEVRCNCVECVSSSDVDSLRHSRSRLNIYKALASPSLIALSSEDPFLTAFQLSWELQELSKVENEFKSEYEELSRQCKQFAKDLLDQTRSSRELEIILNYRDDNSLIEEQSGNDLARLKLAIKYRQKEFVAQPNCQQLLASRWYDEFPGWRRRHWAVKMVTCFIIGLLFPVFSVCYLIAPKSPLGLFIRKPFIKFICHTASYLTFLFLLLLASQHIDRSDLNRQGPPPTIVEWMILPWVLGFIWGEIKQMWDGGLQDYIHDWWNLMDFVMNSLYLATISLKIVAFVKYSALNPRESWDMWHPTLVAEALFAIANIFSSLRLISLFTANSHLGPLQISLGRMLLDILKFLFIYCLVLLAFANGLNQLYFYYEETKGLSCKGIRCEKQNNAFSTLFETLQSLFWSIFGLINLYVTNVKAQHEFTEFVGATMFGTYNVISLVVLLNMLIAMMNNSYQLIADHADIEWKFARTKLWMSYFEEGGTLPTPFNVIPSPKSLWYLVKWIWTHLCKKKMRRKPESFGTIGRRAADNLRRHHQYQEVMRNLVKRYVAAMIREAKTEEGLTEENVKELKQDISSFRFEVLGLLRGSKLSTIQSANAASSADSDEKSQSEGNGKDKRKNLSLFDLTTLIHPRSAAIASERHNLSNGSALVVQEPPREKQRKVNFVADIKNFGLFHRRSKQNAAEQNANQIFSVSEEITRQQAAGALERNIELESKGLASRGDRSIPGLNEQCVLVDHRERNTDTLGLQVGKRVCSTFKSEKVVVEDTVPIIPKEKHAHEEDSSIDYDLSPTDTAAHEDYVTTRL

[2] = target: Intestinal-type alkaline phosphatase (Homo sapiens, UniProt P09923); test: activation of human intestinal alkaline phosphatase – biochemical, dose response (AID 488873); assay type: functional
[3] = target: Intestinal-type alkaline phosphatase (Mus musculus, UniProt P24822); test: PubChem AID 488785; assay type: functional
[4] = target: T2, Alkaline phosphatase, tissue-nonspecific isozyme (Homo sapiens, UniProt P05186); test: TNAP enzyme inhibition by screening hits, dose response, selectivity assay for mouse IAP inhibitor project, biochemical, human TNAP, uHTS hits (AID 488906); assay type: functional
T2 sequence (P05186 whole entry): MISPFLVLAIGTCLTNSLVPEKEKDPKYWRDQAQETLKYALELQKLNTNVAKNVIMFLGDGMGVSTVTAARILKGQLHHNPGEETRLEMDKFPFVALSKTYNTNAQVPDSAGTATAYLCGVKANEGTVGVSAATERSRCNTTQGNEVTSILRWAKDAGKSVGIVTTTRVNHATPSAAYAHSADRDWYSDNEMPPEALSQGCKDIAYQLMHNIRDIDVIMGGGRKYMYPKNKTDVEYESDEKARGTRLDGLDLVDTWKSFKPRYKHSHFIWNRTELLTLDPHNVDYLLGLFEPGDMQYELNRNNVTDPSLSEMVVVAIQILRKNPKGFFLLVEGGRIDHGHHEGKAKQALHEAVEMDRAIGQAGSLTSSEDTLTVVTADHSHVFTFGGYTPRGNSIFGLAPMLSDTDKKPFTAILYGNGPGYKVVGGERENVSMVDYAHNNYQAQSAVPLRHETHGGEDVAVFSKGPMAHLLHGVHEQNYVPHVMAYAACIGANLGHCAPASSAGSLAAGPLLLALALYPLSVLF

H9c2 = test: cells; assay type: functional, cell-based; conditions: Rattus norvegicus, H9c2, Myocardium;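 also: confirmatory concentration-response retest of ultra-high-throughput screening hits for modulation of myocardial damage; cell death induced by hydrogen peroxide oxidative stress; compound pretreatment for 60 min then peroxide exposure for 2 h; potency is for protecting the cells against peroxide damage rather than for killing them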
[5] = target: T3, Histone-lysine N-methyltransferase NSD2 (Homo sapiens, UniProt O96028); assay type: biochemical
T3 sequence (O96028 whole entry): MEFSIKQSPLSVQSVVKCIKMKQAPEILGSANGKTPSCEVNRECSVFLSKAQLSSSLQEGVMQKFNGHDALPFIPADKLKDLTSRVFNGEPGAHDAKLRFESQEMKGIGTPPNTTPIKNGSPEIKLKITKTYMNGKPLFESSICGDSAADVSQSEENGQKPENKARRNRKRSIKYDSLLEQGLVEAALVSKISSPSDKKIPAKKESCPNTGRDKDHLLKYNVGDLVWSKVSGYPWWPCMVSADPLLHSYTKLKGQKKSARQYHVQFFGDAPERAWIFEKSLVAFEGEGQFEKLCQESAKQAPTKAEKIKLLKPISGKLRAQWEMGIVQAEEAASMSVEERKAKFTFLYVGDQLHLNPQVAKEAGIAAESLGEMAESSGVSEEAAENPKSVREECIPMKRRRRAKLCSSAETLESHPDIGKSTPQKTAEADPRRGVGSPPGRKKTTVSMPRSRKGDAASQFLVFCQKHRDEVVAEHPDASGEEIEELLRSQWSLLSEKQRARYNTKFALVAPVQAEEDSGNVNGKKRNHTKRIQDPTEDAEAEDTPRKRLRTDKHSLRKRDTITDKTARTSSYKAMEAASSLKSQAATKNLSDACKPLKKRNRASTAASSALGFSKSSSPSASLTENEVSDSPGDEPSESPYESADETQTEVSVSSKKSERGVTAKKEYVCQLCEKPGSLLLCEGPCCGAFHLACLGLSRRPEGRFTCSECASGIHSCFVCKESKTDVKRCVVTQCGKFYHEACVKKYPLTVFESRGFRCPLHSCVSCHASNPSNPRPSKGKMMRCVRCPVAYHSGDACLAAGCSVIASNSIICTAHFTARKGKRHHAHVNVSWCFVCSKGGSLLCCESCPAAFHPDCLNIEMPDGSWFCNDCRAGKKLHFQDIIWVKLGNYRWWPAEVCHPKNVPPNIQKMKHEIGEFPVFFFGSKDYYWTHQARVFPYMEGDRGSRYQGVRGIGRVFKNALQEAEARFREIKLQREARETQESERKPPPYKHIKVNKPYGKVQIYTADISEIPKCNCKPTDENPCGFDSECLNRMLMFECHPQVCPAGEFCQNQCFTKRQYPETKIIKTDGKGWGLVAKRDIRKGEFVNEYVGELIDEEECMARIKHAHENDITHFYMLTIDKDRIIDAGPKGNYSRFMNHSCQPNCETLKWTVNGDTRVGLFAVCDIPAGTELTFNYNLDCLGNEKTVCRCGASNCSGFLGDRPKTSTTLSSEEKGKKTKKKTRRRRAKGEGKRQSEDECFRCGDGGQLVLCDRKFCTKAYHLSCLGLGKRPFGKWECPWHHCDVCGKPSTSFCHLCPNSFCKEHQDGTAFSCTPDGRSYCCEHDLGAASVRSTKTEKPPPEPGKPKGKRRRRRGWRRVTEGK

[6] = NIH-3T3 fibroblast cytotoxicity, dose response, cytotoxicity control, cell-based, fluorescence, Alamar Blue, secondary assay (AID 2327); assay type: functional;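 also: NIH-3T3 mouse fibroblasts cultured with fluconazole at 8 µg/mL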
[7] = fluconazole-exposed Candida albicans growth modulators – fluorescence, retest, confirmation (AID 2467); assay type: functional, cell-based
Beta-galactosidase = Beta-galactosidase (Escherichia coli, UniProt Q8VNN2); test: detection-enzyme interference by beta-gal modulators – biochemical, E. coli enzyme, set 3, artefact control for CCR6 antagonist project, dose response (AID 504712); assay type: functional
Large T antigen = Large T antigen (Simian virus 40, UniProt P03070); assay type: functional, Betapolyomavirus macacae;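 also: Confirmatory-stage PubChem screen for compounds that inhibit SV40 T antigen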
[8] = target: DNA dC->dU-editing enzyme APOBEC-3G (Homo sapiens, UniProt Q9HC16); test: Dose Response confirmation of small molecule APOBEC3G DNA Deaminase Inhibitors via a fluorescence-based single-stranded DNA deaminase assay. [Related pubchem assays (depositor defined):AID493012, AID493028]; assay type: functional
Hexokinase HKDC1 = target: T4, Hexokinase HKDC1 (Homo sapiens, UniProt Q2TB90); test: inhibition of HKDC1 glucose phosphorylation – biochemical, W721R variant, dose response (AID 504729); assay type: functional
T4 sequence (Q2TB90 whole entry): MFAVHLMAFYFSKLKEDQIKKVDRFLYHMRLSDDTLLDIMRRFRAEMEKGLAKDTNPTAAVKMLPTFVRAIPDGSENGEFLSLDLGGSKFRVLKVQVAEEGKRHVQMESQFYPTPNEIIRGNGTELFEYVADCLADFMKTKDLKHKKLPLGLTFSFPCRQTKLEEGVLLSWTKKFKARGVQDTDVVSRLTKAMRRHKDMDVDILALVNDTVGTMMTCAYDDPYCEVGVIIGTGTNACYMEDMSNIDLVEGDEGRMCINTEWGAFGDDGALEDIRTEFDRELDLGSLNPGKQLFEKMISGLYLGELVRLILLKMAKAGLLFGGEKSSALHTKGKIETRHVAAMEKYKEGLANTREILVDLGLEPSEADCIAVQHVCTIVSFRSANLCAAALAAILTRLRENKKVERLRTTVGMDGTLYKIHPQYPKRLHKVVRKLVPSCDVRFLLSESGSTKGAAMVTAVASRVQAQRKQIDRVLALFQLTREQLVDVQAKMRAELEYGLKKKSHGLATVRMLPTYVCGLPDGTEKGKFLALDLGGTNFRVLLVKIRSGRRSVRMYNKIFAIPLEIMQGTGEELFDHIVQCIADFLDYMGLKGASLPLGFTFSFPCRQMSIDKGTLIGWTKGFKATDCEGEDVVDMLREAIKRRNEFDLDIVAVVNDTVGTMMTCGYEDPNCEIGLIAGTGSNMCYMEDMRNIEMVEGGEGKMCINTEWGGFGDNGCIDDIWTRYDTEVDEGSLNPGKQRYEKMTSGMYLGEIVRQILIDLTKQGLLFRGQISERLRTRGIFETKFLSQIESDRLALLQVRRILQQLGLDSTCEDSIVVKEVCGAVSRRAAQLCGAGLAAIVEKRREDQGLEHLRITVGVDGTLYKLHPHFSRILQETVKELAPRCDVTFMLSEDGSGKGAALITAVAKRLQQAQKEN

[9] = tested on: Streptococcus sp. 'group A'; test: Streptococcus pyogenes SK(-)GAS viability under kanamycin – luminescence, BacTiterGlo, confirmation, counter-screen for streptokinase expression inhibitor project, dose response (AID 1900); assay type: functional, organism-based
Streptococcus = test: GAS UMAA2166 growth inhibition – luminescence, BacTiterGlo, counter-screen for streptokinase expression inhibitor project, dose response (AID 1915); assay type: functional, organism-based;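 also: potency for reduction of bacterial viability or growth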
[10] = target: Heat shock protein HSP 90-alpha (Homo sapiens, UniProt P07900); assay type: functional, organism-based
CAAX prenyl protease 2 = target: T5, CAAX prenyl protease 2 (Saccharomyces cerevisiae S288c, UniProt Q03530); assay type: biochemical
T5 sequence (Q03530 whole entry): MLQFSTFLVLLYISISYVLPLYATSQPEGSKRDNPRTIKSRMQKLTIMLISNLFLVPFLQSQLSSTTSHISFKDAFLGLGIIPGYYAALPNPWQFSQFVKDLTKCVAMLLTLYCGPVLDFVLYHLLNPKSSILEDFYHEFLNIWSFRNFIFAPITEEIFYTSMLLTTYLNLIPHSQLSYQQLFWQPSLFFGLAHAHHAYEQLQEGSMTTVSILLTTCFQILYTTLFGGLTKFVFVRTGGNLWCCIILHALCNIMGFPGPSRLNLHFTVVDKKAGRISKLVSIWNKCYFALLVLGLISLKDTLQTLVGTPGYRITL

[11] = target: Induced myeloid leukemia cell differentiation protein Mcl-1 (Homo sapiens, UniProt Q07820); assay type: functional
Vero = test: viability of Vero cells under compound – cytotoxicity control for flavivirus capping enzyme inhibitors (AID 588742); assay type: functional; conditions: Chlorocebus sabaeus
Genome polyprotein = Genome polyprotein (dengue virus type 2, UniProt P29990); test: flavivirus cap methylation enzyme inhibition – biochemical, confirmation dose response, primary screen (AID 588689); assay type: functional
SUMO-activating enzyme [12] = target: T6, SUMO-activating enzyme (Homo sapiens, UniProt Q9UBT2); test: blockers of UBC9-mediated SUMO conjugation – biochemical, AlphaScreen, SUMOylation inhibitor project, confirmation (AID 2018); assay type: functional
SUMO-activating enzyme [13] = target: T6, SUMO-activating enzyme; test: blockers of SAE1/SAE2–UBC9 SUMO transfer – biochemical, HTRF, uHTS, primary screen (AID 2006); assay type: protein-complex assay
[14] = target: G-protein coupled receptor 55 (Homo sapiens, UniProt Q9Y2T6); test: inhibition of LPI-stimulated GPR55 beta-arrestin translocation – imaging, U2OS, beta-arrestin-GFP, LPI agonist, primary screen (AID 2013); assay type: functional;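 also: antagonist potency measured as reduced agonist-driven arrestin aggregation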
G-protein coupled receptor 55, sequence (Q9Y2T6 whole entry): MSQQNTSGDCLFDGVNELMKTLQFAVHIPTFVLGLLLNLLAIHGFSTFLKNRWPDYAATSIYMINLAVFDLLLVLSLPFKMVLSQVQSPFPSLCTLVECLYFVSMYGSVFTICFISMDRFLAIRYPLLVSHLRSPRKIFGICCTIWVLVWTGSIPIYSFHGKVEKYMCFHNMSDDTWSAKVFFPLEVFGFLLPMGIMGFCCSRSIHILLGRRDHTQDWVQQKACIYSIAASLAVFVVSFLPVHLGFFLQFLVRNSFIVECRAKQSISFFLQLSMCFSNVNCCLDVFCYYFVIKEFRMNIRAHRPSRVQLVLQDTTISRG

Beta-galactosidase, sequence (Q8VNN2 whole entry): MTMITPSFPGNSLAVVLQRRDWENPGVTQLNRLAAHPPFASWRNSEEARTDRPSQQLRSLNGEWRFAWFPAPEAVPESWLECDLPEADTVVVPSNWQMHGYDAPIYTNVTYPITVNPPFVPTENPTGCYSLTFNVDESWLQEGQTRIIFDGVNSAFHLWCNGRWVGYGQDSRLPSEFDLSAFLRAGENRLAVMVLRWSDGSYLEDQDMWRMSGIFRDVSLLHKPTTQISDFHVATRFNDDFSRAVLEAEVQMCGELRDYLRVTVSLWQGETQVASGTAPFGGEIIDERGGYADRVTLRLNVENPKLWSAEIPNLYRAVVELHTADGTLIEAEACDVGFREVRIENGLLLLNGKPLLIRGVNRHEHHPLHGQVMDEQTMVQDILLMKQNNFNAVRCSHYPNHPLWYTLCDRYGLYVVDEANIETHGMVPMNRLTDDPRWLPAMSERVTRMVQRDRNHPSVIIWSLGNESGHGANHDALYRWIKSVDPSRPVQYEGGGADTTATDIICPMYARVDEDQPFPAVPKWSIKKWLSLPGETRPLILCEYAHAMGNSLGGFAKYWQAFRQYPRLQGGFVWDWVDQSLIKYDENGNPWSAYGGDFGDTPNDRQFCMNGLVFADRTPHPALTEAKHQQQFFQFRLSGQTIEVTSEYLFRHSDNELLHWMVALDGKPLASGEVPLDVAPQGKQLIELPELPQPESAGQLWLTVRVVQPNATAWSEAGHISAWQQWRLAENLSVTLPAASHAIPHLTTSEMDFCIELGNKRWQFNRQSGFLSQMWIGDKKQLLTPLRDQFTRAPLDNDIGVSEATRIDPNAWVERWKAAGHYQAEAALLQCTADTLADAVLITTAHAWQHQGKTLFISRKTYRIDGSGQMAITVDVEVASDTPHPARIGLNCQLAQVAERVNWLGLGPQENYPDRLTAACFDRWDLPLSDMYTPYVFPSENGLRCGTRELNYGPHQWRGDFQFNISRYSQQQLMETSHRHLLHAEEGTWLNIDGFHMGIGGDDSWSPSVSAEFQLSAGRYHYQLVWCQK
T6 sequence (Q9UBE0 whole entry): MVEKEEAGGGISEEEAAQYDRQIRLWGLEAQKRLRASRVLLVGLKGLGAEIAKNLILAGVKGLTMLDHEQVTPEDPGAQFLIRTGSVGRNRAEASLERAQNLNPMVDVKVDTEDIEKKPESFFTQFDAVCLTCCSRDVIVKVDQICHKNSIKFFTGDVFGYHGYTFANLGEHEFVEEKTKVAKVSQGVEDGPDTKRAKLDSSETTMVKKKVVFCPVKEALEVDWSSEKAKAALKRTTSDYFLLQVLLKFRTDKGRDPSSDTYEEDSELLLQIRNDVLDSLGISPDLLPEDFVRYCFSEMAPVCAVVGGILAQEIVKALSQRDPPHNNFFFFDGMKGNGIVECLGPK
T6 sequence (Q9UBT2 whole entry): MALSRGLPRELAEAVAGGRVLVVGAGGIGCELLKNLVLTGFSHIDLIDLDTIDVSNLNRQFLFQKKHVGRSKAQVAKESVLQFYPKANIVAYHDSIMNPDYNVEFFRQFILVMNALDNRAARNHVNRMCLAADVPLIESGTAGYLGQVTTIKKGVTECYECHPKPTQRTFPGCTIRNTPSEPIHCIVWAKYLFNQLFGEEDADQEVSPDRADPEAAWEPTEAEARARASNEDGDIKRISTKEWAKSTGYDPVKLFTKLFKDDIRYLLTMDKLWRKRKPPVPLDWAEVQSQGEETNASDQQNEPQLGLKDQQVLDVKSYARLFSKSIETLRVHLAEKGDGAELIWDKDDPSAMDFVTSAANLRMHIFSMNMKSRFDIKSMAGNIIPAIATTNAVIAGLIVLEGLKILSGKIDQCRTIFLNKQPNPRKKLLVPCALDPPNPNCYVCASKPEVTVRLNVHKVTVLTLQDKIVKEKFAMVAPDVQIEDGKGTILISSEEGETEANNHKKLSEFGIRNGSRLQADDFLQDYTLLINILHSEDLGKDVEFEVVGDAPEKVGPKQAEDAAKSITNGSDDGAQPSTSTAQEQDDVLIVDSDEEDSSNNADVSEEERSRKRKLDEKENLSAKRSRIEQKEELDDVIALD
Genome polyprotein, sequence (P29990 2492-3391 limits assumed): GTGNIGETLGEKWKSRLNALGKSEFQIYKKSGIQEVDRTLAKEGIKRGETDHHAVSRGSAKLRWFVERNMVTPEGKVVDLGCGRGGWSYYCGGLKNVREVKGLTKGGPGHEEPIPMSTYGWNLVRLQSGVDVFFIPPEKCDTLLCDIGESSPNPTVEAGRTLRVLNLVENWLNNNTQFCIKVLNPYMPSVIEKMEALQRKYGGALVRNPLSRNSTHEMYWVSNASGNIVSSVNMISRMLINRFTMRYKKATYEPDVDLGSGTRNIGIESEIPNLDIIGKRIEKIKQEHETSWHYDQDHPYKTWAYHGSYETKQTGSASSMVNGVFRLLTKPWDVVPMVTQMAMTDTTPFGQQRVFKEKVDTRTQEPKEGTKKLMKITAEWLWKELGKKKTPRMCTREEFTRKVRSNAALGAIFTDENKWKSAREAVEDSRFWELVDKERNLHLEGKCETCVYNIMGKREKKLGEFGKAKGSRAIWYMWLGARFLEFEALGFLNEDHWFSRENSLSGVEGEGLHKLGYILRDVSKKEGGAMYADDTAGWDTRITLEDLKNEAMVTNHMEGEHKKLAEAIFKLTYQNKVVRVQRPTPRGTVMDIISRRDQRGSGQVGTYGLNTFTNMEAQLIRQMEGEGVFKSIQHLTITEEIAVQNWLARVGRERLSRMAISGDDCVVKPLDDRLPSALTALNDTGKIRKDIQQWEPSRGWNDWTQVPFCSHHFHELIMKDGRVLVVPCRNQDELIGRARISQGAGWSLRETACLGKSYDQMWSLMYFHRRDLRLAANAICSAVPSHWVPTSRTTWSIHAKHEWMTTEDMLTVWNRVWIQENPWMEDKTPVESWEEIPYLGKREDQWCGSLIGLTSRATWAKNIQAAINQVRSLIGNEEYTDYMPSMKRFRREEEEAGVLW
Induced myeloid leukemia cell differentiation protein Mcl-1, sequence (Q07820 whole entry): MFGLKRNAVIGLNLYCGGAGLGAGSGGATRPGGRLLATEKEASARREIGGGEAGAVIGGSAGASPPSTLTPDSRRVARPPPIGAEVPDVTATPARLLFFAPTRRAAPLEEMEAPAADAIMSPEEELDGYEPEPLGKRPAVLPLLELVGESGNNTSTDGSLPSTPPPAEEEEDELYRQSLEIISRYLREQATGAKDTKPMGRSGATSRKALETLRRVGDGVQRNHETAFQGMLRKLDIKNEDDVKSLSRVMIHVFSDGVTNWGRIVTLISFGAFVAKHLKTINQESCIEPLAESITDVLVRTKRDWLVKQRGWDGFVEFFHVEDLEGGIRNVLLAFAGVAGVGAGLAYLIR
DNA dC->dU-editing enzyme APOBEC-3G, sequence (Q9HC16 whole entry): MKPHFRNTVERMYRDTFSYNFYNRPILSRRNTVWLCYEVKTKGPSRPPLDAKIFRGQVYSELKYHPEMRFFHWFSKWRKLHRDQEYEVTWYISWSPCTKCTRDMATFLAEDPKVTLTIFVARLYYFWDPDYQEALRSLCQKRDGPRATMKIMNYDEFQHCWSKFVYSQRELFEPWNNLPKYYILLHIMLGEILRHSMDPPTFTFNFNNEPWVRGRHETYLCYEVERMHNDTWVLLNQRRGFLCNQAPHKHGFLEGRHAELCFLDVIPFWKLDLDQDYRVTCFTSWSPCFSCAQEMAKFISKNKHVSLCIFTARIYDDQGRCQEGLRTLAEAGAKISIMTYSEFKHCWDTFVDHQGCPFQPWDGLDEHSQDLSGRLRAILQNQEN
Intestinal-type alkaline phosphatase (Mus musculus, UniProt P24822), sequence (P24822 whole entry): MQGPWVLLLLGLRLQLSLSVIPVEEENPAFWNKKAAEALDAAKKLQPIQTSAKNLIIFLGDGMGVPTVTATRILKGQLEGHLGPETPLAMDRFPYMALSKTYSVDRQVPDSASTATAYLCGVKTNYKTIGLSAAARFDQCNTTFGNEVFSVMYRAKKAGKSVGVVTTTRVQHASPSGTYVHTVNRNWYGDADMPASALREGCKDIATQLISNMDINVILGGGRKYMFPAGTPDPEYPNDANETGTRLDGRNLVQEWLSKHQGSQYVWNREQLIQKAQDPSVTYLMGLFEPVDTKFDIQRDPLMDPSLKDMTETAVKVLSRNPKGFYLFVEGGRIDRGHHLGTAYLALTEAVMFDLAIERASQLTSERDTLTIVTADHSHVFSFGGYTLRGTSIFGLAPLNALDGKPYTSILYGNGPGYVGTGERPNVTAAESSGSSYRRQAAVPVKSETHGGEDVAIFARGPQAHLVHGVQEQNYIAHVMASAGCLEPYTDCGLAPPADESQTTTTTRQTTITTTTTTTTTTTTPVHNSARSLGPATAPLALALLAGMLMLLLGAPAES

Cc1cc(OCC(=O)N(C(C)C)C(C)C)cc(C)c1Br
EC50 [1]: 3.76 µM (active)

O=C(CN1CCN(c2ccccc2F)CC1)c1ccc(O)c(O)c1
EC50 [2]: > 100 µM (inactive) | IC50 [3]: 1.63 µM (active) | IC50 [4]: 96.8 µM (active) | IC50 (H9c2): > 79 µM (inactive) | AC50 [5]: 8.98 µM (active)

CCCCn1c(SCC(=O)N2c3ccccc3Sc3ccccc32)nc2c1c(=O)n(C)c(=O)n2C
EC50 [1]: 4.22 µM (active)

O=C(NC(=S)Nc1ccccc1O)c1ccc(Cl)cc1Cl
EC50 [6]: > 160 µM (inconclusive) | EC50 [7]: 0.636 µM (active) | IC50 (Beta-galactosidase): > 66.6 µM (inactive)

Sc1nnc(NCCCN2CCOCC2)s1
IC50 (Large T antigen): 22.6 µM (active) | IC50 [8]: 22.4 µM (active)

Cc1cccc(N2C(=O)NC(=O)/C(=C\c3cc(C)n(-c4sc5c(c4C#N)CCCC5)c3C)C2=O)c1C
IC50 (Hexokinase HKDC1): 17.1 µM (active)

O=C(Nc1nc(-c2ccccc2)c(-c2ccccc2)o1)c1ccc(F)cc1
EC50 [9]: 0.894 µM (active) | EC50 (Streptococcus): 1.77 µM (active) | IC50 (Beta-galactosidase): > 66.6 µM (inactive) | AC50 [10]: 7.59 µM (active)

O=C1C(Cl)=C(Nc2cccc(O)c2)C(=O)N1Cc1ccccc1
EC50 [1]: 3.76 µM (active)

CCn1cc(/C=C(\NC(=O)c2ccccc2Cl)C(=O)N2CCOCC2)c2ccccc21
AC50 (CAAX prenyl protease 2): 4.91 µM (active)

CC(C)c1ccc(S(=O)(=O)/N=C2/C=C(Sc3nc[nH]n3)C(=O)c3ccccc32)cc1
IC50 [11]: 1.35 µM (active) | IC50 (Hexokinase HKDC1): 2.88 µM (active) | CC50 (Vero): 22.2 µM (active) | IC50 (Genome polyprotein): 6.89 µM (active)

Cc1ccccc1C(=O)Nc1nnc(CC(=O)N/N=C/c2cn(Cc3ccccc3)c3ccccc23)s1
IC50 (SUMO-activating enzyme [12]): 16.8 µM (active) | IC50 (SUMO-activating enzyme [13]): 24.7 µM (active)

CCOC(=O)C1=C(C)N=C(C)/C(=C(/O)OC)C1c1cccc([N+](=O)[O-])c1 (stereo unspecified)
IC50 [14]: 1.47 µM (active)

— ChEMBL document CHEMBL1201862, “PubChem BioAssay data set” (2004)
